Experimental data reported in publication PMC11299051 (Molecular informatics, 2023).

Key:
[1] = test system: SARS-CoV-2; settings: in vivo; cited from earlier work
[2] = biological target: RdRp (Nsp12 domain) (Severe acute respiratory syndrome coronavirus 2, UniProt P0DTD1); assay: biochemical; format: binding, SARS-CoV-2

Cn1cnc(Cn2c(=O)[nH]/c(=N\c3cc4cn(C)nc4cc3Cl)n(Cc3cc(F)c(F)cc3F)c2=O)n1 [Ensitrelivir]
decrease viral clearance [1]: 50 h

N#C[C@@]1(c2ccc3c(N)ncnn23)O[C@H](COP(=O)(O)OP(=O)(O)OP(=O)(O)O)[C@@H](O)[C@H]1O [GS-443902]
binding to Nsp12 (in words) [2]: could not detect binding

Cc1ccc(NC(=O)c2ccc(nc2O)C2CC2)c(O)c1
binding to Nsp12 (in words) [2]: led to Nsp12 aggregation, so no KD could be determined

Cc1ccc(C(=O)Nc2ccc(S(=O)(=O)O)c3cc(S(=O)(=O)O)cc(S(=O)(=O)O)c23)cc1NC(=O)c1cccc(NC(=O)Nc2cccc(C(=O)Nc3cc(C(=O)Nc4ccc(S(=O)(=O)O)c5cc(S(=O)(=O)O)cc(S(=O)(=O)O)c45)ccc3C)c2)c1 [Suramin]
Kd [2]: 827 ± 306 nM

FC(F)(F)c1ccc2nnc(CNC(=O)c3ccc4 C(=O)N5CCC-CCC5=Nc4c3)n2c1
binding to Nsp12 (in words) [2]: led to Nsp12 aggregation, so no KD could be determined

Nc1nnnn1-c1cccc(c1)C(=O)NCc1cc(F)ccc1Oc1ccc(F)c-c(Cl)c1
binding to Nsp12 (in words) [2]: led to Nsp12 aggregation, so no KD could be determined
